Assay [1] addresses KRAS Q61H (Homo sapiens, UniProt P01116+P62937, Q61H). As to the kind of experiment: Disruption of BRAF RBD interaction with Ras (FRET / MOA assay, with Cyclophilin A). The format is biochemical. Particulars: KRAS Q61H; read-out: KRAS Q61H FRET data IC50. The method in brief: (§1)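 TR-FRET in 25 mM HEPES pH 7.3, 100 mM NaCl, 5 mM MgCl2, 0.1% BSA: 25 μM Cyclophilin A, 12.5 nM His6-Ras-GMPPNP, 50 nM GST-BRAF RBD with compound (10-point 3-fold series from 30 μM), 3 h at 25° C. Anti-His Eu/anti-GST APC added, 1.5 h more; IC50 from decreased FRET ratio versus DMSO.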

For assay [2], the target named is NRAS Q61K (Homo sapiens, UniProt P01111+P62937, Q61K). Described as above. The format is biochemical. Particulars: NRAS Q61K; read-out: NRAS Q61K FRET data IC50. The method in brief: as §1
Assay [3] addresses NRAS Q61R (Homo sapiens, UniProt P01111+P62937, Q61R). The description is as above. The format is biochemical. Particulars: NRAS Q61R; read-out: NRAS Q61R FRET data IC50. The method in brief: as §1
Assay [4] concerns the target NRAS WT (Homo sapiens, UniProt P01111+P62937). The assay is described as above. Type of assay: biochemical. Conditions: NRAS WT; read-out: NRAS WT FRET data IC50. The method in brief:
as §1

For assay [5], the target named is KRAS G12V (Homo sapiens, UniProt P01116+P62937, G12V). The assay is described as above. The format is biochemical. Conditions: KRAS G12V; read-out: KRAS G12V FRET data IC50. The method in brief:
(§2)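 Biochemical TR-FRET disruption assay: nucleotide-loaded K-Ras with Cyclophilin A and a BRAF RBD construct, compound titrated over 10 points from 30 μM (final).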

For assay [6], the target named is KRAS G12C (Homo sapiens, UniProt P01116+P62937, G12C). The description is as above. Type of assay: biochemical. Particulars: read-out: KRAS G12C FRET data, IC50. The method in brief:
as §2

The target of assay [7] is NRAS G12C (Homo sapiens, UniProt P01111+P62937, G12C). The description is as above. The format is biochemical. Conditions: NRAS G12C; read-out: NRAS G12C FRET data IC50.
Assay [8] addresses KRAS G13D (Homo sapiens, UniProt P01116+P62937, G13D). The description is as above. The format is biochemical. Particulars: KRAS G13D; read-out: KRAS G13D FRET data IC50. The method in brief: as §2
In assay [9] the target is KRAS WT (Homo sapiens, UniProt P01116+P62937). The description is as above. Type of assay: biochemical. Conditions: KRAS WT; read-out: KRAS WT FRET data IC50. The method in brief: as §2
Assay [10] has as its target KRAS G12S (Homo sapiens, UniProt P01116+P62937, G12S). The description is as above. Particulars: read-out: KRAS G12S FRET data, IC50. The format is biochemical. The method in brief: as §2
Assay [11] concerns the target KRAS G13C (Homo sapiens, UniProt P01116+P62937, G13C). The description is as above. Type of assay: biochemical. Particulars: read-out: KRAS G13C FRET data, IC50. The method in brief:
as §2

Assay [12] addresses KRAS G12D (Homo sapiens, UniProt P01116+P62937, G12D). The assay is described as above. Type of assay: biochemical. Conditions: read-out: KRAS G12D FRET data, IC50. The method in brief:
as §2

In assay [13] the test system is NCI-H358 (K-Ras G12C). Kind of assay: CellTiter-Glo cell viability assay, 5-day treatment. The format is cell-based. Conditions: Homo sapiens, NCI-H358, 120 h, 5-day treatment; read-out: H358 Cell Viability assay data (K-Ras G12C, IC50). The method in brief: (§3)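 Seeded cells received test compound by direct dispensing. On day 5 the plates sat at room temperature approximately 30 minutes, then luminescence was measured. Data were normalized to DMSO and curve-fitted with four parameters.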

In assay [14] the test system is Capan-1 (K-Ras G12V). The assay is described as above. The format is cell-based. Particulars: Homo sapiens, CAPAN-1, 120 h. The method in brief:
as §3

Where [15] appears, read: 5-day treatment, read-out: Capan-1 Cell Viability assay data (K-Ras G12V, IC50).
The mark [16] stands for this setting: read-out: Capan-1 Cell Viability assay data (K-Ras G12V, IC50, uM).

Read-outs that look alike come from different tables or passages of the source. Some results are limits rather than exact numbers.

Chain of KRAS Q61H (P01116 1-169 isoform P01116-2 Q61H limits assumed): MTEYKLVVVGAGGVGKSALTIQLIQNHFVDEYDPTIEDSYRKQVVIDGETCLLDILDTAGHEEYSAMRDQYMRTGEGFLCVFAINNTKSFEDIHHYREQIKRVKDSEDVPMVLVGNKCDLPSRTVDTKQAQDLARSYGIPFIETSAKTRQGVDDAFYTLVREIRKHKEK
Chain of KRAS Q61H (P62937 whole entry): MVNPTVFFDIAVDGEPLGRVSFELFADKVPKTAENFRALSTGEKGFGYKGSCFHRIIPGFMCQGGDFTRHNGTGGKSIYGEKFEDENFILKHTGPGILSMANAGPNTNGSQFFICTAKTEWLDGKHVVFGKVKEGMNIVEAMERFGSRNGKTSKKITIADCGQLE
Chain of KRAS G12C (P01116 1-169 isoform P01116-2 G12C): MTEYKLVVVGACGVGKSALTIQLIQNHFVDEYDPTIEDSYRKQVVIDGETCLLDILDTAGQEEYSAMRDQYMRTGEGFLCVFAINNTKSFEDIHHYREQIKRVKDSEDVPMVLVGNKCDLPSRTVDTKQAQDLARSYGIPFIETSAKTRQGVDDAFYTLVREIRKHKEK
Chain of KRAS G12C (P62937 whole entry): as the sequence (P62937 whole entry) above
Chain of KRAS WT (P01116 1-169 isoform P01116-2 limits assumed): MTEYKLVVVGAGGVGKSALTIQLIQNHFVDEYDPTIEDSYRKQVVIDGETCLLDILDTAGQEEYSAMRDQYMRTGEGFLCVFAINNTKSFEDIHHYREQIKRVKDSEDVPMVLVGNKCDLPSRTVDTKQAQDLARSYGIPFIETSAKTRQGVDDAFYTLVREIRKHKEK
Chain of KRAS WT (P62937 whole entry): as the sequence (P62937 whole entry) above
Chain of KRAS G12S (P01116 1-169 isoform P01116-2 G12S limits assumed): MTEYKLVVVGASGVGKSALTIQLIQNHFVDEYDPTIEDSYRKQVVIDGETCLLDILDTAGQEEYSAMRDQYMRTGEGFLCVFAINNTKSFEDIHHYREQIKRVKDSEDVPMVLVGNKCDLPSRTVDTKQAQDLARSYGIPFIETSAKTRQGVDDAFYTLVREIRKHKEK
Chain of KRAS G12S (P62937 whole entry): as the sequence (P62937 whole entry) above
Chain of KRAS G13C (P01116 1-169 isoform P01116-2 G13C): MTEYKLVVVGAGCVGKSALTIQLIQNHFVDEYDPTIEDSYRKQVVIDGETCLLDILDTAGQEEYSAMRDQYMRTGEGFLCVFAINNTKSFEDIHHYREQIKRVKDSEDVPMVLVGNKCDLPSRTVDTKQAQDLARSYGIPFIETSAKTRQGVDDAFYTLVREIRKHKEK
Chain of KRAS G13C (P62937 whole entry): as the sequence (P62937 whole entry) above
Chain of KRAS G12V (P01116 1-169 isoform P01116-2 G12V limits assumed): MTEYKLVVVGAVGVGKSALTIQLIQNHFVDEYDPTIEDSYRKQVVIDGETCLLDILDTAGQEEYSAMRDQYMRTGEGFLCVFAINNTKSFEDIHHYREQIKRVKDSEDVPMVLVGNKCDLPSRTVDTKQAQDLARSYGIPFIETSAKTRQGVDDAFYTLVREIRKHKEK
Chain of KRAS G12V (P62937 whole entry): as the sequence (P62937 whole entry) above
Chain of NRAS Q61R (P01111 whole entry Q61R): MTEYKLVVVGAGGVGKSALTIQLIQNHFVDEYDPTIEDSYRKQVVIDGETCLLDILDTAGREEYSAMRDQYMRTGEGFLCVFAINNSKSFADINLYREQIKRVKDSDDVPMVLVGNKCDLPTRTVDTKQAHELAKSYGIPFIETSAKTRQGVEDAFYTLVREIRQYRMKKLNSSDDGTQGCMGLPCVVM
Chain of NRAS Q61R (P62937 whole entry): as the sequence (P62937 whole entry) above
Chain of NRAS WT (P01111 whole entry): as the sequence (P01111 whole entry Q61R) above, with R61Q counted along it
Chain of NRAS WT (P62937 whole entry): as the sequence (P62937 whole entry) above
Chain of KRAS G13D (P01116 1-169 isoform P01116-2 G13D limits assumed): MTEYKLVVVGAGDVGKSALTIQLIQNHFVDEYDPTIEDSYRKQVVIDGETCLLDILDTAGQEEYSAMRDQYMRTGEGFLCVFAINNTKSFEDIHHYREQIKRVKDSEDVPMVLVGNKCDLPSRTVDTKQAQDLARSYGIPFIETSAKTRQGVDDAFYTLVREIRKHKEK
Chain of KRAS G13D (P62937 whole entry): as the sequence (P62937 whole entry) above
Chain of NRAS Q61K (P01111 whole entry Q61K): as the sequence (P01111 whole entry Q61R) above, with R61K counted along it
Chain of NRAS Q61K (P62937 whole entry): as the sequence (P62937 whole entry) above
Chain of NRAS G12C (P01111 whole entry G12C): as the sequence (P01111 whole entry Q61R) above, with G12C, R61Q counted along it
Chain of NRAS G12C (P62937 whole entry): as the sequence (P62937 whole entry) above
Chain of KRAS G12D (P01116 1-169 isoform P01116-2 G12D limits assumed): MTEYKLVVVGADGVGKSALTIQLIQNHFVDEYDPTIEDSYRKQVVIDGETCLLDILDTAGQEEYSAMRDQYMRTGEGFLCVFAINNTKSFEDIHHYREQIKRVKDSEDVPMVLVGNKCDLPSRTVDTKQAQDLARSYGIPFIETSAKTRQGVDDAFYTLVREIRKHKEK
Chain of KRAS G12D (P62937 whole entry): as the sequence (P62937 whole entry) above

In the case of `CCn1c(-c2cccnc2[C@H](C)OC)c2c3cc(ccc31)-c1cc(O)cc(c1)C[C@H](NC(=O)[C@H](C(C)C)N(C)C(=O)C1CCC(C3CCCO3)O1)C(=O)N1CCC[C@H](N1)C(=O)OCC(C)(C)C2` (stereo partly drawn) [Example A396], the IC50 in assay [1], in assay [2], in assay [3], in [4], in assay [5] and in [6] was 10 to 100 nM in each case. For the same compound, the IC50 in [7] lay in the range of 10 to 100 nM; in assay [8] it was 10 to 100 nM; in [9], 10 to 100 nM; in assay [10], 10 to 100 nM; in assay [11] it was 10 to 100 nM; in assay [12], 100 to 1000 nM. Moreover, the IC50 in assay [13] lay within 100 to 1000 nM; in assay [14] (setting [15]), 0.1 to 1 µM.

In the case of `CCn1c(-c2cccnc2[C@H](C)OC)c2c3cc(ccc31)-c1csc(n1)C[C@H](NC(=O)[C@H](C(C)C)N(C)C(=O)N1CCC(C(=O)C(F)(F)F)CC1)C(=O)N1CCC[C@H](N1)C(=O)OCC(C)(C)C2` [Example A422], the IC50 in assay [1], in [2], in assay [3], in [4], in assay [5] and in assay [6] was 10 to 100 nM throughout. The IC50 is 10 to 100 nM in assay [7]; 100 to 1000 nM in [8]; 10 to 100 nM in assay [9]; 10 to 100 nM in assay [10]; 10 to 100 nM in assay [11]; 100 to 1000 nM in assay [12]. The IC50 in assay [13] lay in the range of 10 to 100 nM; in assay [14] (setting [15]), 0.1 to 1 µM.

Consider `CCn1c(-c2cc(N3CCN(C)CC3)cnc2[C@H](C)OC)c2c3cc(ccc31)-c1cc(O)cc(c1)C[C@H](NC(=O)[C@H](C1CCCC1)N(C)C(=O)[C@H]1OCC[C@H]1c1ccccc1)C(=O)N1CCC[C@H](N1)C(=O)OCC(C)(C)C2` [Example A423], for which the 50% inhibitory concentration (IC50) in assay [1] was in the range of 100 to 1000 nM; in assay [2], 1000 to 10000 nM; in assay [3] it was 100 to 1000 nM; in assay [4] it was 100 to 1000 nM; in assay [5] it was 10 to 100 nM; in assay [6], 100 to 1000 nM. For the same compound, the IC50 in assay [7], in assay [8], in assay [9], in assay [10], in assay [11] and in assay [12] was 100 to 1000 nM in each case. For the same compound, the IC50 in assay [13] fell in the range of 100 to 1000 nM; in assay [14] (setting [15]) it was 0.1 to 1 µM.

As to `CCn1c(-c2cccnc2[C@H](C)OC)c2c3cc(ccc31)-c1csc(n1)C[C@H](NC(=O)[C@H](C(C)C)N(C)C(=O)N1CCC3(CC1)CN(C)CCO3)C(=O)N1CCC[C@H](N1)C(=O)OCC(C)(C)C2` [Example A433], the 50% inhibitory concentration (IC50) in assay [1], in [2], in assay [3], in assay [4], in assay [5] and in assay [6] was 100 to 1000 nM in each case. Besides, the IC50 in [7] was in the range of 100 to 1000 nM; in assay [8], 100 to 1000 nM; in assay [9], 100 to 1000 nM; in [10], 100 to 1000 nM; in [11], 100 to 1000 nM; in assay [12] it was 1000 to 10000 nM. The IC50 in [13] fell in the range of 10 to 100 nM; in assay [14] (setting [15]), 0.01 to 0.1 µM.

In the case of `CCn1c(-c2cccnc2[C@H](C)OC)c2c3cc(ccc31)-c1csc(n1)C[C@H](NC(=O)[C@H](C(C)C)N(C)C(=O)N1CC[C@]13CCCN(C)C3)C(=O)N1CCC[C@H](N1)C(=O)OCC(C)(C)C2` [Example A442], the IC50 in assay [1] is 100 to 1000 nM; in assay [2], 1000 to 10000 nM; in [3], 1000 to 10000 nM; in assay [4], 1000 to 10000 nM; in assay [5], 1000 to 10000 nM; in [6] it was 1000 to 10000 nM. In addition, the IC50 in [7] lay within 1000 to 10000 nM; in assay [8], 100 to 1000 nM; in assay [9] it was 1000 to 10000 nM; in assay [10], 1000 to 10000 nM; in assay [11], 1000 to 10000 nM; in assay [12], 1000 to 10000 nM. The IC50 fell in the range of 100 to 1000 nM in assay [13] and 1 to 10 µM in assay [14] (setting [15]).

As for `CCn1c(-c2cccnc2[C@H](C)OC)c2c3cc(ccc31)-c1csc(n1)C[C@H](NC(=O)[C@H](C(C)C)N(C)C(=O)N(C)C1(COC)COC1)C(=O)N1CCC[C@H](N1)C(=O)OCC(C)(C)C2` [Example A455], the IC50 in [1] fell in the range of 100 to 1000 nM; in [2] it was 100 to 1000 nM; in [3], 100 to 1000 nM; in assay [4], 100 to 1000 nM; in assay [5], 1000 to 10000 nM; in assay [6], 100 to 1000 nM. For the same compound, the IC50 lay within 100 to 1000 nM in assay [7]; 1000 to 10000 nM in [8]; 100 to 1000 nM in assay [9]; 100 to 1000 nM in assay [10]; 1000 to 10000 nM in assay [11]; 1000 to 10000 nM in assay [12]. Besides, the IC50 was in the range of 100 to 1000 nM in [13] and 0.1 to 1 µM in assay [14] (setting [15]).

In the case of `CCn1c(-c2cccnc2[C@H](C)OC)c2c3cc(ccc31)-c1csc(n1)C[C@H](NC(=O)[C@H](C(C)C)N(C)C(=O)N1CCN(C(=O)CCN(C)C)CC1)C(=O)N1CCC[C@H](N1)C(=O)OCC(C)(C)C2` [Example A459], the IC50 in assay [1] lay within 10 to 100 nM; in assay [2], 10 to 100 nM; in assay [3], 10 to 100 nM; in assay [4] it was 10 to 100 nM; in assay [5], 100 to 1000 nM; in assay [6], 10 to 100 nM. Also, the IC50 fell in the range of 10 to 100 nM in [7]; 10 to 100 nM in [8]; 10 to 100 nM in assay [9]; 10 to 100 nM in assay [10]; 10 to 100 nM in assay [11]; 100 to 1000 nM in [12]. Besides, the results for the IC50 in [13] and in [14] (setting [15]) were 10 to 100 nM and 0.1 to 1 µM, respectively.

In the case of `CCn1c(-c2cccnc2[C@H](C)OC)c2c3cc(ccc31)-c1csc(n1)C[C@H](NC(=O)[C@H](C(C)C)N(C)C(=O)[C@@H]1CCN(C)[C@@H]1c1ccccc1)C(=O)N1CCC[C@H](N1)C(=O)OCC(C)(C)C2` [Example A464], the IC50 in assay [1] lay in the range of 100 to 1000 nM; in [2] it was 1000 to 10000 nM; in assay [3], 1000 to 10000 nM; in assay [4], 1000 to 10000 nM; in [5], 1000 to 10000 nM; in assay [6], 1000 to 10000 nM. Besides, the half-inhibitory concentration (IC50) in [7], in [8], in assay [9], in assay [10], in assay [11] and in assay [12] was 1000 to 10000 nM each time. Moreover, the figures for the IC50 in [13] and in assay [14] (setting [16]) were 1000 to 10000 nM and 1 to 10 µM, respectively.

`CCn1c(-c2cc(C3CCN(C)CC3)cnc2[C@H](C)OC)c2c3cc(ccc31)-c1csc(n1)C[C@H](NC(=O)[C@H](C(C)C)N(C)C(=O)N1CC(C3COC3)C1)C(=O)N1CCC[C@H](N1)C(=O)OCC(C)(C)C2` [Example A465]: the IC50 in [1], in assay [2], in assay [3], in assay [4], in assay [5] and in [6] was 10 to 100 nM throughout. Also, the IC50 in assay [7] was 10 to 100 nM; in assay [8], 100 to 1000 nM; in assay [9] it was 10 to 100 nM; in assay [10] it was 10 to 100 nM; in assay [11], 10 to 100 nM; in assay [12] it was 100 to 1000 nM. In addition, the 50% inhibitory concentration (IC50) in assay [13] was below 10 nM; in assay [14] (setting [16]), below 0.01 µM.

The values above are taken from patent US20230233569A1 (Revolution Medicines, Inc., priority 2020, published 2023).
